Laboratory results reported in patent US20240368566A1, “PYK2-DERIVED PEPTIDES FOR INHIBITING INVADOPODIA-MEDIATED CANCER METASTASIS” (BAR-ILAN UNIVERSITY, priority 2023, published 2024).

Legend:
MDA-MB-231 cells = test: Barbed end formation assay; type: cell-based, human; conditions: EGF stimulation; all concentrations
Protocol: The barbed end assay was performed using biotin-conjugated actin as described in Genna et al., 2018 (supra). In brief, 24 h before each experiment, cells were plated on fibronectin/gelatin unlabeled matrix in the presence of Pyk2-PRR or control peptides at 0.1, 1, or 5 μM concentration and allowed to attach for 8 h. Cells were starved for 16 h in the presence of the peptides and then stimulated with 2.5 nM EGF and permeabilized with a permeabilization buffer (20 mM Hepes, pH 7.5, 138 mM KCl, 4 mM MgCl2, 3 mM EGTA, 0.2 mg/ml saponin, 1 mM ATP, and 1% BSA) containing 0.4 μM biotin-conjugated muscle actin (AB07) (Cytoskeleton Inc., Denver, CO, USA) for 1 min at 37° C. Cells were fixed in 3.7% paraformaldehyde for 5 min, blocked in PBS containing 1% FBS, 1% BSA, and 3 μM un-labeled phalloidin (Molecular Probes, P3457), then labeled with FITC anti-biotin (200-092-211) (Jackson ImmunoResearch Laboratories, West Grove, PA, USA) to visualize barbed ends, and with rhodamine-phalloidin (R415) (Molecular Probes, Eugene, OR, USA) and Arp2 to identify regions of cells rich in invadopodia. The barbed end intensity at invadopodia-rich regions was quantified by measuring mgv at invadopodia-rich areas minus mgv of the background. Data were normalized to the control condition for each experiment.

cortactin SH3 domain = molecular target: T1, cortactin SH3 domain (Mus musculus, UniProt Q60598); test: NMR affinity determination, binding of peptides to purified cortactin-SH3; conditions: binding to cortactin SH3 in vitro
T1 construct: nucleotides1468-1641); 6xHis (N, cleaved yes); made in house; host or cells: E. coli BL21 (DE3)
T1 sequence (Q60598 490-546): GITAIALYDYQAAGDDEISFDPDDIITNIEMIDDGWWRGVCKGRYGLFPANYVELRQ
Protocol: The DNA sequence encoding the SH3 domain of the mouse cortactin SH3 domain (GenBank ID U03184; nucleotides1468-1641) was sub-cloned into a pET-28a plasmid (Novagen, Merck) in frame with the cleavable N-terminal 6×His tag. Isotopically labeled cortactin-SH3 for heteronuclear NMR experiments was expressed in transformed E. coli BL21 cells (DE3) grown in the presence of kanamycin (50 mg/1) and chloramphenicol (34 mg/1) at 37° C. in M9 minimal medium. For ^15N (^13C) labeling the medium contained 1 g/L of ^15NH4Cl (4 g/L ^13C6-glucose), and 0.25 g/l of appropriately labeled Celtone Base Powder (Cambridge Isotope Laboratories, Andover, MA) was added. For triple-labeled ^2H,^13C,^15N—SH3, expression began in 100 ml of the above medium grown to an OD600 of 0.4-0.5 and gently centrifuged. Pellets were then resuspended in 500 ml filter-sterilized D20-based ^15N-M9 supplemented with ^2H7-^13C6-glucose (2 g/1) and DCN-Isogro (0.25 g/1) to reach a final OD600 of −0.1. In both cases cells were then grown at 37° C. and induced with 0.5 mM isopropyl β-D-1-thiogalactopyranoside (IPTG) upon reaching OD600-0.8, followed by overnight growth at 27° C. To purify the SH3 domain, cells were harvested by centrifugation, subjected to a single freeze-thaw cycle, and resuspended in lysis buffer (50 mM NaPi pH 8.0, 300 mM NaCl, 1 mM dithiothreitol (DTT), 100 ml per liter of culture) supplemented with 1 tablet EDTA-free protease inhibitor cocktail (Merck) and benzamidine (5 mM). Cells were lysed by French press, followed by addition of benzamidine (final concentration 10 mM) and phenylmethylsulfonyl fluoride (PMSF, 1 mM), and the lysate was clarified by centrifugation. The supernatant was loaded on a HisTrap HP column (GE Healthcare, Chicago, IL, USA) equilibrated with lysis buffer and the protein eluted through a gradient (Buffer B: 50 mM NaPi pH 8.0, 100 mM NaCl, 300 mM imidazole, 1 mM DTT). To the fraction eluting at ˜40% B purified tobacco etch virus (TEV) protease (1:30 mol:mol) was added, and the mixture dialyzed overnight at 4° C. against dialysis buffer (50 mM NaPi at pH 8.0, 100 mM NaCl, 1 mM DTT). The dialysate was brought to a final concentration of ˜5 mM imidazole, filtered, and loaded onto a HisTrap column. The collected flowthrough was dialyzed against 20 mM Tris (pH 7.5), 1 mM DTT for 3 h to reach a final concentration of 10 mM NaCl. […]
Purified SH3 was dialyzed against NMR sample buffer (30 mM NaPi, pH ˜6.5) and concentrated to the desired concentration in an Amicon concentration tube (3 kDa MWCO) (Merck). […] For quantitative titrations, purchased peptides were dissolved in 100-300 μl NMR sample buffer, and samples at varying (SH3:PRR2 1:0-1:6, SH3 concentration constant at 0.1 mM) ratios were prepared. Fittings were performed with 5-6 measured points. […]

[1] = test system: interaction between Pyk2 and cortactin in invadopodia; test: Acceptor photobleaching FRET assay; type: cell-based, human; conditions: 0.1, 1, 5 μM peptide; mature matrix-degrading invadopodia
Protocol: Acceptor photobleaching experiments were performed as described in Genna et al., 2018 (supra). In brief, cortactin-TagRFP MDA-MB-231 cells were plated on Alexa 405 gelatin in a medium containing Pyk2-PRR or scrambled control peptides at 0.1, 1, and 5 μM concentration, fixed, and immunostained with pY402-Pyk2/Alexa Fluor 488-goat anti-rabbit (donor) and cortactin/Alexa Fluor 555-goat anti-mouse (acceptor). As a control, cells were stained with Tks5/Alexa Fluor 488-goat anti-rabbit (donor) and cortactin/Alexa Fluor 555-goat anti-mouse (acceptor). Co-localization of cortactin with degradation holes in Alexa 405-labeled gelatin was used to identify mature degrading invadopodia. For all FRET experiments, cells were imaged in PBS at room temperature on a laser-scanning inverted confocal microscope (Zeiss LSM780; 60×, NA 1.4, oil objective). A region of interest surrounding invadopodia was bleached using 100% 561-nm laser power (acceptor channel), and images were acquired in both the 488 nm and the 561 nm channels before and after bleaching. FRET efficiency was calculated as the E=1−(donor pre/donor post) in background-subtracted images and was corrected for fluctuations in laser power and donor bleaching in ImageJ.

C[C@H](NC(=O)[C@@H](N)[C@@H](C)O)C(=O)N[C@@H](Cc1ccccc1)C(=O)N[C@@H](CCC(N)=O)C(=O)N[C@@H](CCC(=O)O)C(=O)N1CCC[C@H]1C(=O)N1CCC[C@H]1C(=O)N1CCC[C@H]1C(=O)N[C@@H](CCCCN)C(=O)N1CCC[C@H]1C(=O)N[C@@H](CO)C(=O)N[C@@H](CCCNC(=N)N)C(=O)N1CCC[C@H]1C(=O)N[C@@H](CCCCN)C(=O)N[C@@H](Cc1ccc(O)cc1)C(=O)N[C@@H](CCCNC(=N)N)C(=O)N1CCC[C@H]1C(=O)N1CCC[C@H]1C(=O)N1CCC[C@H]1C(=O)O [Pyk2-PRR2, TAFQEPPPKPSRPKYRPPP]
generation of free actin barbed ends at invadopodia (MDA-MB-231 cells): completely disrupted | higher affinity than Pyk2-PRR3 (cortactin SH3 domain): 16 fold | interaction between Pyk2 and cortactin in invadopodia (FRET) [1]: significantly inhibited
